Reference: patent publication US20250122164A1, “N,N-[…] ANALOGS FOR TREATING BRAIN DISORDERS” (The Regents of the University of California, priority 2021, published 2025)
Entries after “also recorded” stand apart in the source; their conditions may differ.

Assays:
SERT [1] = biological target: T1, SERT (Homo sapiens, UniProt P31645); conditions: other studies; cited from earlier work
T1 construct: host or cells: HEK293T cells, transient transfection with Lipofectamine 3000

[2] = Head-twitch response (HTR) assay; type: in vivo, mice; conditions: first 20-minutes in novel arena; 12.5, 25, 50 mg/kg i.p.
Experimental: (§1) The head-twitch response assay was performed as described previously using both male and female C57BL/6J mice (3 each per treatment). The mice were obtained from Jackson Laboratory and were approximately 9 weeks old at the time of the experiments. Before injecting the mice, their baseline temperature was measured using an IR thermometer as described. Compounds were administered via intraperitoneal (i.p.) injection (5 ml kg-1) using 0.9% saline as the vehicle. Immediately after the animals were placed in an arena for 30-minutes where their locomotor activity was assessed using AnyMaze automated tracking software. The behavior was also videotaped and later scored by two blind overserves for head-twitch responses, the results were averaged. Upon completion of the novelty induced locomotion assay their temperature was measured at the 30-minute mark. The mice were then transferred to a holding cage with their other treatment matched cage mates and their temperature was measured at the 90 and 120-minute mark.

Tail suspension test = type: in vivo, mice; conditions: i.p. injection, tested after 24 h, vs vehicle
Experimental: Male C57/BL6J mice (9-10 weeks of age at time of experiment) were obtained from the Jackson Lab and housed in a UCD vivarium. […] All experiments were carried out by the same experimenter who performed the handling. Twenty-four hours after treatments, animals were subjected to a tail suspension test. Animals were suspended from their tails approximately 16 cm from the top of the apparatus and 25 cm from the bottom of the apparatus. Behavior was video recorded for 6 min and analyzed later by an experimenter blinded to treatment conditions. Immobility was defined as the amount of time spent not struggling or attempting to generate momentum and was scored for the entire 6 min period. All TST sessions were performed between the hours of 08:00 and 13:00.

SERT [3] = biological target: T1, SERT; test: SERT efflux: [3H]5-HT release from SERT expressing HEK293T cells; type: cell-based; conditions: HEK293T cells transiently expressing SERT, 10 pM-100 uM
Experimental: HEK293T cells were grown in Dulbecco's Modified Eagle Media (DMEM) supplemented with 10% fetal bovine serum (FBS) and 1% penicillin-streptomycin. 24 hours prior to the experiment, cells were plated in 24-well plates at a density of 150,000 cells/well and concurrently transfected using Lipofectamine 3000 according to the manufacturer's protocol. Cells were transfected with hSERT-N1-pEYFP (Addgene #70105) or a GFP control plasmid (Lonza pmaxGFP vector). The next day the wells were washed (1×500 μL) with 1× Hank's Balanced Salt Solution supplemented with 2 mM MgCl2 and 2 mM CaCl2 (HBSS) and the plate was placed on a 37° C. water bath for the remainder of the experiment. 250 μL of HBSS containing 10 nM 5-[1,2-3H[N]]-hydroxytryptamine creatinine sulfate (NET498001MC, Lot: 2902700) was added to the wells and incubated for 15 minutes, allowing uptake into SERT expressing HEK cells. Uptake was terminated by aspiration of wells followed by washes (3×500 μL) with HBSS. […] 200 μL of media was collected from each well and placed into a scintillation vial containing 1 mL PerkinElmer Ultima Gold™ scintillation cocktail to serve as the efflux fraction. […] Radioactivity in the form of disintegrations per minute (DPM) was determined the following day with the use of a Beckman LS 6000 liquid scintillation counter. […] The GFP control cells were checked to ensure radioactivity was below background levels.

[4] = Body temperature assay (IR thermometer); type: in vivo, mice; conditions: for increase in body temperature (hyperthermia): 12.5, 25, 50 mg/kg i.p., measured for 2-hours
Experimental: as §1

[5] = Cued fear conditioning / fear extinction; type: in vivo, mice; conditions: for fear extinction test curve vs vehicle: 12.5 and 25 mg/kg curves; for freezing during extinction training (day 2): 12.5 and 25 mg/kg i.p. 30-min before extinction training; for conditioned freezing on extinction testing day (24-hours later, drug-free): treatment i.p. 30-min before extinction training on day 2, 16 CS tones
Excerpt: Mice were exposed to cued fear conditioning on day 1, fear extinction training on day 2 and extinction testing on Day 3. Mice were habituated to handling for 3 days before experimentation. On the day of the experiment mice were allowed to habituate to the behavior room for 1-hour before beginning the experiment. 15-minutes before starting the experiment, mice were separated out into individual holding cages.
Cued fear conditioning consisted of six pairings of a CS auditory cue (80-85 dB white noise, 15 s) and a co-terminating US footshock (0.85 mA and 2 s), each spaced 1.5 minutes apart. The fear conditioning apparatus (Med Associates model #MED-VFC2-SCT-R) consisted of a 30.5 cm×24.1 cm×21 cm internal soundproof chamber, with metal grated floors, an infrared camera, a sound generator, and a light source. Mice were initially placed in the conditioning apparatus and the first 1.5 minutes were stimulus free. After the last shock, the animals remained in the chambers for an additional 2 min before being returned to their home cages. […] Freezing responses for fear conditioning (day 1) are presented as the percentage of time spent freezing during the last 1.5 minutes after the last shock. The apparatus was cleaned with 70% EtOH in between trials.
Cued fear memory was assessed by exposing the animals to a novel context (lights off, A-frame insert, smooth plastic floor insert, additional vanilla odor) for 2 min prior to 16 presentations of auditory cues (80 dB white noise, 15 s) spaced 15 s apart. Freezing responses for cue testing (day 2 and 3) are presented as the percentage of time spent freezing during the tone presentations. The procedure was repeated on day 3 in the absence of drug.
Fear conditioning experiments were performed between the hours of 08:00-11:00. Freezing behavior was scored using Med Associates Video Freeze software v2.25 (motion threshold=100 au, detection method=linear, minimum freeze duration=15 frames, which is equal to a 0.5 s freeze). The apparatus was cleaned with 70% EtOH in between trials on day 1 and Sani-cloth gemicidal disposable cloths (PDI, Q89072) were used to clean the apparatus on days 2 and 3.

5-HT2A biosensor = test: psychLight 5-HT2A biosensor in cultured cortical neurons; type: cell-based; conditions: DIV 10-14 rat cortical neurons, 10 uM, vs vehicle
Experimental: E18 rat cortical neurons were plated at 60,000 cells/well in glass 96-well plates (P96-1.5H-N, Cellvis) coated with poly-D-lysine (Sigma, P6407-5MG). At day in vitro (DIV) 3-7 neurons were infected with AAV9_hSynapsin_psychLight2 (Neurophotonics-Viral Vector Core) or AAV9-hsyn-GRAB_5-HT1.0 (Addgene, 140552-AAV9) at an MOI of 70,000. Neurons were kept in the incubator for one week to allow for viral expression. On imaging day (DIV 10-14), media was aspirated and wells were washed (1×200 μL) with HBSS supplemented with 2 mM MgCl2 and 2 mM CaCl2. 50 μL HBSS was added to the wells of the assay plate and then imaged on a CellInsight CX7 HCA Platform (Thermo Fisher, CX7A1110) configured with a onstage incubator for live cell imaging (Thermo Fisher, NX7LIVE001) at 40×(N.A.=0.60) with 25 regions of interest (ROI) taken per well using an arbitrary ROI pattern for each well with no bias to location and no overlap of the ROIs (exposure=400 ms, LED power=100%). […]
Images were then analyzed using ImageJ by selecting ROIs surrounding individual neuronal cell bodies of the post-treatment images and recording the mean fluorescence, the same ROIs were applied to the pretreatment images to record the mean fluorescence. The […] values were calculated as previously reported.

[6] = Novelty induced locomotion (NIL) test; type: in vivo, mice; conditions: for locomotion at the lower doses: 12.5 mg/kg and 25 mg/kg; for locomotion at highest dose: 50 mg/kg i.p., vs vehicle; for locomotion (total distance) in novel arena, dose dependence / time spent in the center of the arena: 12.5, 25, 50 mg/kg i.p., 30-minutes
Experimental: as §1

rat cortical neurons [7] = test: Spinogenesis (dendritic spine density) in mature cortical cultures; type: cell-based; conditions: for dendritic spine density: DIV 15 rat cortical neurons, 24-hours treatment; for spinogenesis effect after ketanserin pretreatment: KTSN 30-minute pretreatment, 10-fold excess, DIV 15, 24-hours
Experimental: Spinogenesis experiments were performed as previously described with the exception that cells were treated at DIV14 instead of DIV18 and then fixed on DIV15. The images were taken on a Nikon HCA Confocal microscope a with a 100x/NA 1.45 oil objective. DMSO and ketamine […] were used as vehicle and positive controls, respectively. For blocking experiments, ketanserin was added 30-minutes prior to addition of agonists in 10-fold excess.
(§2) Statistical Analysis. Appropriate samples sizes were estimated based on our previous experiences performing similar experiments. Treatments were randomized, and data were analyzed by experimenters blinded to treatment conditions. All comparisons were planned prior to performing each experiment. Statistical analyses were performed using GraphPad Prism (v.8.1.2). Data are represented as mean±s.e.m., unless otherwise noted, with asterisks indicating *P<0.05, **P<0.01, ***P<0.001 and ****P<0.0001.

rat cortical neurons [8] = test: Dendritogenesis (Sholl analysis) in cultured cortical neurons; type: cell-based; conditions: for dendritic complexity (Sholl analysis, Nmax): DIV 6 rat cortical cultures, 72-hours treatment, 10 uM and 100 nM, vs VEH; for dendritogenesis effect after ketanserin pretreatment: KTSN added 30 minutes before, 10-fold excess, DIV 6, 72-hours; for dendritic arbor complexity (Sholl analysis): increasing concentrations, efficacy in the nanomolar range
Experimental: For the dendritogenesis experiments conducted using cultured cortical neurons, E18 timed pregnant Sprague Dawley rats were obtained from Charles River Laboratories. Full culturing, staining and analysis experiments were performed as previously described with the exception that there was no media change during treatments. Dendrites were visualized using a chicken anti-MAP2 antibody (1:10,000; EnCor, CPCA-MAP2) as previously reported. DMSO and ketamine […] were used as vehicle and positive controls, respectively. For blocking experiments, ketanserin was added 30-minutes prior to addition of agonists in 10-fold excess.
as §2

[9] = patients, SR-MDMA paired psychotherapy; 25% in placebo group; cited from earlier work

T1 sequence (P31645 whole entry): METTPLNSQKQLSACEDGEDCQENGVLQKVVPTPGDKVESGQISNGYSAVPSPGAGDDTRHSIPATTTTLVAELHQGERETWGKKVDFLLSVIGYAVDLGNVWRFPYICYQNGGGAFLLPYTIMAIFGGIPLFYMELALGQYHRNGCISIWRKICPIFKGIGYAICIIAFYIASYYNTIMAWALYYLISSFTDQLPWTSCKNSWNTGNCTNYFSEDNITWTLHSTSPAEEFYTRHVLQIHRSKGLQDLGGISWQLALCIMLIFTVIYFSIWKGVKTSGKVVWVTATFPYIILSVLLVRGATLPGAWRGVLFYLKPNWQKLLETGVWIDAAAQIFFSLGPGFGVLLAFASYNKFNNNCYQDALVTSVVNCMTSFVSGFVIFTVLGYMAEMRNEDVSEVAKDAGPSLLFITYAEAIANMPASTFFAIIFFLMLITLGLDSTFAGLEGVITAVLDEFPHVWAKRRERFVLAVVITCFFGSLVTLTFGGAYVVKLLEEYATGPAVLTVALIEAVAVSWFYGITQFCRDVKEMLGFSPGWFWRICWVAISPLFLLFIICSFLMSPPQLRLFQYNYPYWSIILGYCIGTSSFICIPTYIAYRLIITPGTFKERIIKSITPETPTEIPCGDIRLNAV

Row | Compound | head twitch response (hallucinogenic potential) [2] | increase in body temperature (hyperthermia) [4] | fear extinction test curve vs vehicle [5] | freezing during extinction training (day 2) [5] | conditioned freezing on extinction testing day (24-hours later, drug-free) [5] | psychlight 5-HT2A biosensor response (5-HT2A biosensor) | locomotion at the lower doses [6] | locomotion at highest dose [6] | locomotion (total distance) in novel arena, dose dependence [6] | time spent in the center of the arena [6] | dendritic spine density (rat cortical neurons [7]) | spinogenesis effect after ketanserin pretreatment (rat cortical neurons [7]) | dendritic complexity (Sholl analysis, Nmax) (rat cortical neurons [8]) | dendritogenesis effect after ketanserin pretreatment (rat cortical neurons [8]) | dendritic arbor complexity (Sholl analysis) (rat cortical neurons [8]) | further results
1 | CC(Cc1ccc2c(c1)OCO2)N(C)C (racemic) [racemic version of LED] | – | – | – | – | – | – | – | – | – | – | – | – | – | – | – | 5-HT uptake inhibition and release (SERT [1]): moderate ability to inhibit uptake of 5-HT as well as promote its release
2 | C[C@H](Cc1ccc2c(c1)OCO2)N(C)C [LED, (R)-1-(benzo[d][1,3]dioxol-5-yl)-N,N-dimethylpropan-2-amine] | Neither compound elicited a significant HTR | Neither compound induced any increases in body temperature | statistically lower than the vehicle control curve | neither dose influenced freezing during extinction training | the 12.5 mg/kg dose of LED resulted in reduced freezing on testing day | Neither LED nor R-MDMA induced a significant response | neither of them altered changes in locomotion or had psychostimulant properties | significant decrease in locomotion | dose dependent decrease in locomotion | only the highest doss caused a decrease in time spent in the center | increases dendritic spine density | KTSN blocks the spinogenesis effects | increases in dendritic complexity | blocked by ketanserin | robustly increased dendritic arbor complexity | antidepressant behavioral effect (tail suspension test immobility) (Tail suspension test): produces antidepressant behavioral effects; [3H]5-HT release (efflux) (SERT [3]): failed to induce [^3H]5-HT release; body temperature relative to vehicle ([4]; 50 mg/kg i.p., 30-minute time point): significant decrease in temperature; fear extinction, females only ([5]; separated by sex, females): females display enhanced extinction with the 12.5 mg/kg dose; fear extinction, males only ([5]; separated by sex, males): males display enhanced extinction with the 25 mg/kg dose; promotion of plasticity (Sholl analysis), comparison of enantiomers and racemates (rat cortical neurons [8]; cultured cortical neurons, FIG. 5, listed as R-MDDMA): more effect at promoting plasticity than either the S-enantiomer or the racemic mixture; also recorded: more effective than racemic MDMA
3 | CNC(C)Cc1ccc2c(c1)OCO2 (racemic) [SR-MDMA, S,R(+/−)-3,4-methylenedioxymethamphetamine] | – | – | – | – | – | – | – | – | – | – | – | – | – | – | – | response rate in decreasing the symptoms of PTSD [9]: 83%
4 | R-3,4-Methylenedioxy methamphetamine [R-MDMA, reference compound] | Neither compound elicited a significant HTR | Neither compound induced any increases in body temperature | statistically lower than vehicle control | decreased freezing during extinction training and testing | decreased freezing during extinction training and testing | Neither LED nor R-MDMA induced a significant response | neither of them altered changes in locomotion or had psychostimulant properties | exhibits psychostimulant effects | dose dependent increase in locomotion | all doses decreased time spent in the center | increases dendritic spine density, comparably to R-MDMA | KTSN blocks the spinogenesis effects | increases in dendritic complexity | blocked by ketanserin | robustly increased dendritic arbor complexity | –
